One data set has as its system human Trefoil Factor 2 (hTFF2) gene. The experiment in a line: hTFF2 gene reporter assay (luciferase) using pGL3-hTFF2pro•pWL-neo/MKN-45 #6-2 cell line. It is filed as cell-based. Conditions: test compound concentration 10^−6 M; 24 hours culture; luciferase activity as control % of dimethylsulfoxide-added wells (100%). As to the method:
Transcription promoting activity on human Trefoil Factor 2 (hTFF2) gene of test compounds was evaluated by means of an hTFF2 gene reporter assay.
(1) Preparation of hTFF2 Gene Reporter Vector pGL3-hTFF2pro
DNA was extracted from HeLa cells (CCL-2, DAINIPPON PHARMACEUTICAL CO., LTD.) using a deoxyribonucleic acid (DNA) extraction kit (DNeasy™ Tissue Kit, manufactured by QIAGEN). The hTFF2 promoter region was amplified using the extracted DNA as a template by means of the polymerase chain reaction (PCR). The oligomers 5′-[…]-3′ and 5′-[…]-3′ were selected as PCR primers to be amplified, based on the report by Beck et al. (Beck S., Sommer P., Blin N., Gott P., 5′-flanking motifs control cell-specific expression of trefoil factor genes (TFF), Int. J. Mol. Med. 2(3), 353-361 (1998)). Platinum® Pfx DNA polymerase was used as DNA polymerase. The PCR was performed under the conditions of denaturing for 30 seconds at 95° C., annealing for 30 seconds at 55° C. and extending for 75 seconds at 68° C., and the procedures were repeated for 32 cycles.
The PCR products were separated and purified by 1% agarose gel electrophoresis, and cloned to a pCR-BluntII-TOPO vector attached to a cloning kit (Zero Blunt® TOPO® PCR Cloning Kit, manufactured by Invitrogen Corporation). The produced plasmid pCR-Blunt-TFF2pro was introduced into E. coli for transformation (TOP 10 Ultracomp™ Cells, manufactured by Invitrogen Corporation), and transformant strain pCR-Blunt-TFF2pro/TOP10 was selectively cultured in LB agar medium containing 30 μg/ml of Zeocin (Zeocin, manufactured by Invitrogen Corporation). The pCR-Blunt-TFF2pro/TOP10 was subjected to shaking culture in 50 ml of LB medium containing 30 μg/ml of Zeocin at 37° C. over night, and a plasmid was prepared using a plasmid preparation kit (Concert™ High Purity Midiprep System, manufactured by GIBCO BRL).
The nucleotide sequence of the PCR product cloned to the plasmid pCR-Blunt-TFF2pro was determined. The determined nucleotide sequence was compared with the counterpart of hTFF2 promoter region reported in a gene bank (GenBank accession AB038162). The nucleotide sequence of the MluI-HindIII region cloned in pCR-Blunt-TFF2pro was identical to GenBank accession AB038162 (FIG. 1).
The underlined portions indicate the recognition sequence (ACGCGT) of the restriction enzyme MluI and the recognition sequence (AAGCTT) of the restriction enzyme HindIII. The nucleotide sequences of the MluI-HindIII region are identical between the hTFF2 promoter region reported in GenBank and the PCR product cloned to the plasmid pCR-Blunt-TFF2pro. […]
On the technique in general: A reporter such as luciferase makes a cellular process visible.
For `COc1ccc(CC2SC(=O)NC2=O)c2c1N(Cc1ccc(NC(=O)c3ccc4ccccc4c3)cc1)C(=O)CC2` (stereo not shown) [Example 22, 5-{8-methoxy-1-[4-(2-naphthoylamino)benzyl]-2-oxo-1,2,3,4-tetrahydroquinolin-5-ylmethyl}thiazolidine-2,4-dione], the “TFF2 Production Promoting Activity” value is on record as “++ (a TFF2 production promoting activity of 1000% or higher at a test compound concentration of 10^−6 M)”.

System in another data set: not given
Assay: not given
Settings: not given
A word on the melting point: it is the temperature, or range, at which the solid turns liquid. Compound `Cl.O=C1NC(=S)SC1Cc1cccc2c1CCC(=O)N2Cc1ccc(Cl)nc1` (stereo not shown) had a melting point of 70 to 80 °C.
The same measure, in the same setting: to `COc1ccc(CCC2SC(=O)NC2=O)c2ccc(=O)n(C)c12` (stereo not shown) [Example 2, 5-[2-(8-methoxy-1-methyl-2-oxo-1,2-dihydroquinolin-5-yl)ethyl]thiazolidine-2,4-dione] belongs 222 to 224 °C; to `COc1ccc(CCCC2SC(=O)NC2=O)c2ccc(=O)n(C)c12` (stereo not shown) [Example 3, 5-[3-(8-methoxy-1-methyl-2-oxo-1,2-dihydroquinolin-5-yl)propyl]thiazolidine-2,4-dione], 172 to 175 °C; to `COc1ccc(C2SC(=O)NC2=O)c2ccc(=O)n(C)c12` (stereo not shown) [Example 4, 5-(8-methoxy-1-methyl-2-oxo-1,2-dihydroquinolin-5-yl)thiazolidine-2,4-dione], 255 °C (dec.).
On the same count and under the same terms, to `COc1ccc(C=C2SC(=O)NC2=O)c2ccc(=O)n(C)c12` [Example 9, 5-[1-(8-Methoxy-1-methyl-2-oxo-1,2-dihydroquinolin-5-yl)methylidene]thiazolidine-2,4-dione] belongs ≥ 300 °C.
Same read-out and setting: the figure for `COc1ccc(C=C2SC(=O)N(C)C2=O)c2ccc(=O)n(C)c12` [Example 10, 5-[1-(8-Methoxy-1-methyl-2-oxo-1,2-dihydroquinolin-5-yl)methylidene]-3-methylthiazolidine-2,4-dione] is 270 °C (dec.); for `O=C1NC(=O)C(Cc2cc(=O)n(Cc3ccc(Cl)cc3)c3ccccc23)S1` (stereo not shown) [Example 14, 5-[1-(4-chlorobenzyl)-2-oxo-1,2-dihydroquinolin-4-ylmethyl]thiazolidine-2,4-dione] it is 142.1 to 143.7 °C.
As for `O=C1NC(=O)C(Cc2cc3ccccc3n(Cc3ccc(-c4ccccc4)cc3)c2=O)S1` (stereo not shown) [Example 17, 5-[1-(Biphenyl-4-ylmethyl)-2-oxo-1,2-dihydroquinolin-3-ylmethyl]thiazolidine-2,4-dione], the melting point lay in the range of 220.4 to 221.8 °C.
Turning to `O=C1NC(=O)C(Cc2ccc3c(c2)N(Cc2ccc(-c4ccccc4)cc2)C(=O)CC3)S1` (stereo not shown) [Example 18, 5-[1-(Biphenyl-4-ylmethyl)-2-oxo-1,2,3,4-tetrahydroquinolin-7-ylmethyl]thiazolidine-2,4-dione], the melting point was 213.2 to 213.7 °C.
The same measure, in the same setting: to `COc1ccc(CC2SC(=O)NC2=O)c2c1N(Cc1ccc([N+](=O)[O-])cc1)C(=O)CC2` (stereo not shown) [Example 20, 5-[8-methoxy-1-(4-nitrobenzyl)-2-oxo-1,2,3,4-tetrahydroquinolin-5-ylmethyl]thiazolidine-2,4-dione] belongs 246.5 to 246.6 °C; to `COc1ccc(CC2SC(=O)NC2=O)c2c1N(Cc1ccc(N)cc1)C(=O)CC2` (stereo not shown) [Example 21, 5-[1-(4-aminobenzyl)-8-methoxy-2-oxo-1,2,3,4-tetrahydroquinolin-5-ylmethyl]thiazolidine-2,4-dione], 174.1 to 174.8 °C; to `CCCCCOC(=O)Nc1ccc(CN2C(=O)CCc3c(CC4SC(=O)NC4=O)ccc(OC)c32)cc1` (stereo not shown) [Example 23, 5-[1-(4-pentyloxycarbonylaminobenzyl)-8-methoxy-2-oxo-1,2,3,4-tetrahydroquinolin-5-ylmethyl]thiazolidine-2,4-dione], 98 to 102 °C.
Same read-out and setting: to `COc1ccc(CC2SC(=O)NC2=O)c2c1N(Cc1ccc(C(=O)Nc3ccc(C(C)C)cc3)cc1)C(=O)CC2` (stereo not shown) [Example 27, 5-{1-[4-(4-isopropylphenylaminocarbonyl)benzyl]-8-methoxy-2-oxo-1,2,3,4-tetrahydroquinolin-5-ylmethyl}thiazolidine-2,4-dione] belongs 243 to 244 °C; to `O=C1NC(=O)C(Cc2ccc(O)c3c2CCC(=O)N3Cc2ccccc2)S1` (stereo not shown) [Example 31, 5-(1-benzyl-8-hydroxy-2-oxo-1,2,3,4-tetrahydroquinolin-5-ylmethyl)thiazolidine-2,4-dione], 213.2 to 213.7 °C; to `COc1ccc(CC2SC(=O)NC2=O)c2c1N(CC(=O)O)C(=O)CC2` (stereo not shown) [Example 34, 5-(1-carboxymethyl-8-methoxy-2-oxo-1,2,3,4-tetrahydroquinolin-5-ylmethyl)thiazolidine-2,4-dione], 251 to 255 °C.
The compound `COC(=O)CN1C(=O)SC(Cc2ccc(OC)c3c2ccc(=O)n3C)C1=O` (stereo not shown) [Example 43, 3-methoxycarbonylmethyl-5-(8-methoxy-1-methyl-2-oxo-1,2-dihydroquinolin-5-ylmethyl)thiazolidine-2,4-dione] came in with a melting point of 182 to 184 °C.
On the same count and under the same terms, to `O=C1NC(=S)SC1Cc1cccc2c1CCC(=O)N2Cc1ccc(-c2ccccc2)cc1` (stereo not shown) [Example 46, 1-(biphenyl-4-ylmethyl)-5-(4-oxo-2-thioxothiazolidin-5-ylmethyl)-3,4-dihydro-1H-quinolin-2-one] belongs 186.3 to 187.1 °C; to `O=C1NC(=S)SC1Cc1cccc2c1CCC(=O)N2Cc1ccc(Br)cc1` (stereo not shown) [Example 47, 1-(4-bromobenzyl)-5-(4-oxo-2-thioxothiazolidin-5-ylmethyl)-3,4-dihydro-1H-quinolin-2-one], 191.3 to 192.1 °C.
Same read-out and setting: to `O=C1NC(=O)C(Cc2cc(=O)[nH]c3ccccc23)S1` (stereo not shown) [Example 111] belongs 290 to 291 °C; to `Cn1c(=O)cc(CC2SC(=O)NC2=O)c2ccccc21` (stereo not shown) [Example 112], 246 to 248 °C; to `CN1C(=O)SC(Cc2cc(=O)n(C)c3ccccc23)C1=O` (stereo not shown) [Example 113], 143 to 145 °C.
Still for that read-out and setting: the figure for `COc1ccc(CC2SC(=O)NC2=O)c2c1N(C)C(=O)CC2` (stereo not shown) [Example 145] is 204 to 208 °C.
`COc1ccc(CC2SC(=O)NC2=O)c2c1NC(=O)CC2` (stereo not shown) [Example 146] had a melting point of 253 to 256 °C.
Still for that read-out and setting: to `CCN1C(=O)CCc2c(CC3SC(=O)NC3=O)ccc(OC)c21` (stereo not shown) [Example 147] belongs 179 to 181 °C; to `CCNC(=O)Nc1ccc(CN2C(=O)CCc3c(CC4SC(=O)NC4=O)ccc(OC)c32)cc1` (stereo not shown) [Example 227], 195.7 to 196.9 °C; to `CCC(=O)Nc1ccc(CN2C(=O)CCc3c(CC4SC(=O)NC4=O)ccc(OC)c32)cc1` (stereo not shown) [Example 228], 198.3 to 200.3 °C.
Same read-out and setting: to `COc1ccc(CC2SC(=O)NC2=O)c2c1N(Cc1ccc(NC(C)=O)cc1)C(=O)CC2` (stereo not shown) [Example 229] belongs 215.2 to 217.8 °C; to `COC(=O)Nc1ccc(CN2C(=O)CCc3c(CC4SC(=O)NC4=O)ccc(OC)c32)cc1` (stereo not shown) [Example 230], 136.3 to 138.6 °C; to `COc1ccc(CC2SC(=O)NC2=O)c2c1N(Cc1ccc(NC(=O)c3cccnc3)cc1)C(=O)CC2` (stereo not shown) [Example 231], 233 to 234.2 °C.
Still for that read-out and setting: the figure for `CC(=O)N1CCC(CCN2C(=O)CCc3c(CC4SC(=O)NC4=O)cccc32)CC1` (stereo not shown) [Example 614] is 209.5 to 211 °C.

These data come from patent publication US7777038B2, “Carbostyril compound” (Otsuka Pharmaceutical Co., Ltd., priority 2004, dated 2010).
